# Data reported in paper PMC10821196, “Analysis of Marrubiin in Marrubium alysson L. Extract Using Advanced HPTLC: Chemical Profiling, Acetylcholinesterase Inhibitory Activity, and Molecular Docking” (Metabolites, 2023).
# Biological target: T1, acetylcholinesterase (AChE) (Electrophorus electricus, UniProt O42275)
# T1 construct: commercial native enzyme from electric eel (Sigma-Aldrich)
# Experiment: Ellman assay, […] nm
# Format: biochemical
# T1 sequence (O42275 24-633): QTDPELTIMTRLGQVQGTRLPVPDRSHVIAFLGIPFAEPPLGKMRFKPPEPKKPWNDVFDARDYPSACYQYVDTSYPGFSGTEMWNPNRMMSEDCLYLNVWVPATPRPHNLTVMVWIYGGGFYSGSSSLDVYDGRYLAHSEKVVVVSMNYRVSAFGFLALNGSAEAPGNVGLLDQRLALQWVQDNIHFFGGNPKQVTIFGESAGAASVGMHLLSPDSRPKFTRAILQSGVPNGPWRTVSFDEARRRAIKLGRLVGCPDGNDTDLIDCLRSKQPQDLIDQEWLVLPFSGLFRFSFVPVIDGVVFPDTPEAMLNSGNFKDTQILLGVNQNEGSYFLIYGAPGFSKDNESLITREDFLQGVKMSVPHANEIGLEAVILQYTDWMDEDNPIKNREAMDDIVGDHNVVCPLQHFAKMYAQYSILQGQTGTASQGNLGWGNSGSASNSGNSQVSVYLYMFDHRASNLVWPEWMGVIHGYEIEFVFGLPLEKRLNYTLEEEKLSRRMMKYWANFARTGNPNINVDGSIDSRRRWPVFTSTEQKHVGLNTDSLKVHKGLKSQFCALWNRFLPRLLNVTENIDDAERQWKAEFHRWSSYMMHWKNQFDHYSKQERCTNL
smiles,measurement,value
C[C@@H]1C[C@H]2OC(=O)[C@@]3(C)CCC[C@@](C)([C@@H]23)[C@@]1(O)CCc1ccoc1 [marrubiin],IC50,52.7 ± 5.66 µM
